According to US9211313B2, “Methods and compound to inhibit Ca2+ permeable cation conductance” (priority 2011, dated 2015):
Read-outs that look alike come from different tables or passages of the source. Where a SMILES comes first, the peptide text is derived from it. Bridges are numbered along the chain shown (N, C = ends). [ ]: non-standard residue; d: D form.

Key:
neurite = experiment: Neurite initiation and neurite length; type: cell-based
Source text: The peptide GsMTx4 of the present invention can be prepared for pharmaceutical use by incorporation with a pharmaceutically acceptable carrier or diluent. The peptide can be formulated into tablets, capsules, caplets and the like. Suitable carriers for tablets include calcium carbonate, starch, lactose, talc, magnesium stearate and gum acacia. The peptide can also be formulated for oral, parenteral or intravenous administration in aqueous solutions, aqueous alcohol, glycol or oil solutions or emulsions. The peptide can also be formulated for inhaling by encapsulating to facilitate alveolar absorption as has been done for insulin (Inhale Therapeutic Systems, San Carlos, Calif., inhale.com). Pharmaceutical compositions suitable for such routes of administration are well known in the art. For example, suitable forms and compositions of pharmaceutical preparations can be found in Remington's Pharmaceutical Science, 1980, 15^thed. Mack Publishing Co., Easton, Pa. Thus, the peptide GsMTx4 can be administered orally, subcutaneously, parenterally, intravenously, intramuscularly or intranasally. The peptide may also be applied to medical devices that will come into contact blood. Both L and D enantiomers of GsMTx4's and its variants can be used for the present invention. We have previously shown that both L- and D-GsMTx4 block mechanosensitive channel (MSC) activity. Although, we have noted differences in the effects of these enantiomers, both forms are effective. For example, we have observed that the ability of the mirror image form (D-enantiomer) to inhibit mechanically activated ion channels is similar to the wild type peptide (L-form) (Suchyna et al 2004). […] Thus, both L and the D forms can be used in the present invention.

mice = experiment: Acute IV toxicity, observed for 1 hour, mice; type: in vivo, mouse
Description: In another experiment, mice were IV injected with D-GsMTx4 at 9, 5, 3, and 1 mg/kg concentrations and observed for 1 hour at Covance Drug Development Company. There were 3 mice injected per concentration. […] All mice appeared normal by 1 hour.

[1] = Tissue distribution over 24 hrs after a single dosing; type: in vivo, mouse; conditions: for Tmax: mouse, blood, read-out: time of peak blood concentration
Description: This example describes the tissue distribution of GsMTx-4. Mice were dosed with D-GsMTx4 by three methods of administration and sacrificed at different time points over 24 hrs by Covance Drug Development Company. Tissues were harvested and sent frozen to Custom Biologics Company for concentration analysis. There were three animals per cohort and 7 time points distributed approximately logarithmically over 24 hours following a single dosing. We followed the distribution of peptide for three routes of administration −5 mg/kg IV, 50 mg/kg subQ and 50 mg/kg GI lavage. […] We sampled 7 different tissues including EDL muscle, diaphragm, brain, bladder, heart, liver and blood. […] Under both methods the peptide peaked in all tissues at about 2 hrs and plateaued for the 24 hr experiment duration. […] The distribution followed a pattern reflecting the relative capillary permeability of the tissue. […] Since the peptide has a strong partition coefficient to lipids, the mean concentration in the tissues is much lower than that in the membrane, the site of action.

rats = experiment: Acute IV toxicity, observed for 1 hour, rats; type: in vivo, rat
Description: In another experiment, rats were IV injected with D-GsMTx4 at 9, 3, and 1 mg/kg concentrations and observed for 1 hour at Covance Drug Development Company. There were 3 rats injected for 3 and 1 mg/kg and 1 rat injected for 9 mg/kg concentration.

ferrets = experiment: Cardiovascular hemodynamics and EKG after IV injection in telemetered animals; type: in vivo, ferret; conditions: IV 0.2 to 5 mg/kg
Description: In another study, Cardiovascular hemodynamics and EKG was assessed after IV injection of D-GsMTx4 into telemetered free ranging ferrets in 4 cohorts of 3 animals over concentration ranging from 0.2 to 5 mg/kg at Covance Drug Development Company. This study was one of the main recommendations given us by the TACT advisory panel in Spring 2011. Particular attention was given to QT intervals, arterial pressure (mean, systolic and diastolic) and core temperature for 24 hours following IV injection.

mdx mice = experiment: Toxicity with daily subQ dosing for 30 days; type: in vivo, mouse; conditions: 5 mg/kg subQ daily, 30 days (month long)
Description: This example describes toxicity studies with GsMTx-4. In one experiment, D-GsMTx4 was administered to 60 mdx mice and controls by daily subQ dosing at 5 mg/kg for 30 days at the Washington D.C. Wellstone center.

[2] = test system: mechanosensitive channel (MSC); conditions: cited from earlier work
[3] = target: deoxygenation-induced Ca2+-permeable cation conductance (Psickle-like)
[4] = target: lysophosphatidic acid (LPA)-activated cation-permeable channel in human SS red cells
KCa3.1 = target: T1, KCa3.1 (Homo sapiens, UniProt O15554); conditions: 50 nM; cited from earlier work
T1 construct: KCa3.1 activity stimulated in intact human AA cells by 1 μM A23187; endogenous in cells; host or cells: intact human AA red blood cells
T1 sequence (O15554 whole entry): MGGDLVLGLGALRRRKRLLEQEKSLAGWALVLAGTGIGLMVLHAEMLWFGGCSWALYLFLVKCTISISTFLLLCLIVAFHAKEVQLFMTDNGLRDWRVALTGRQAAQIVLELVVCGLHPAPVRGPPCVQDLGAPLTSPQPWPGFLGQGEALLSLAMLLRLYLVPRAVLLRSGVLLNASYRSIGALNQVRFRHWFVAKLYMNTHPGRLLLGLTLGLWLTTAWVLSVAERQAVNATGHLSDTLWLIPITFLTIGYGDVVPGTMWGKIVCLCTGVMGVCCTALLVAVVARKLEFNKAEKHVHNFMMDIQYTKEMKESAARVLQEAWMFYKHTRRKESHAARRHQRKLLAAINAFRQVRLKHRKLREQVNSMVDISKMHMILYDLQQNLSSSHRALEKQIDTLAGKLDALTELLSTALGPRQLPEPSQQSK

human SS red cells = experiment: Fluo-3 fluorescence measurement of [Ca2+]i after LPA; type: cell-based; conditions: 5 μM; 75 SS red cells
Source text: Fluorescence measurements of cytosolic [Ca^2+] ([Ca^2+]i): After removal of plasma and buffy coat by aspiration, human or mouse red cells were washed three times at room temperature and suspended in modified Hank's solution containing (in mM), 137 NaCl, 5.4 KCl, 1 CaCl2, 1 MgCl2, 0.8 NaK phosphate, 5.6 glucose, and 10 Na HEPES, pH 7.4. Dilute cell suspensions were settled on polylysine-coated coverslips forming the bottom of an open perfusion chamber (2.5 cm diameter, 1 cm depth) and washed again 3 times.
Measurement of relative changes in [Ca^2+]i by Fluo-3 fluorescence emission was previously validated in intact human (Yang et al. 2000, Blood, 95(7):2421-2425; Andrews et al. 2002, Blood, 199(9):3392-3399) and mouse red cells (Akel et al. 2007, Amer. J. Physiol., 292(5):C1759-1767). Attached red cells were loaded in the dark with the fluorescent non-ratiometric Ca^2+ indicator Fluo-3-AM (10 μM, Molecular Probes, Eugene, Oreg.) at 37° C. for 1 hr, then washed and incubated 15 min further to allow de-esterification of intracellular dye. […] Fluorescence emission (proportional to [Ca^2+]i) from a 535ds20 bandpass filter was collected from all attached single cells within the arbitrarily selected visual field. […]

[5] = test system: LPA-induced cation conductance in human SS red cells; experiment: On-cell patch clamp of LPA-induced cation conductance; type: cell-based; conditions: 5 μM; Na methanesulfonate in bath and pipette, -Vp=-50 mV; n=8
Source text: On-cell patch clamp: Borosilicate pipettes (Corning 7052) pulled with a Narishige two stage puller or a Sutter P97 puller and fire-polished to resistances of 10-20 MΩ were front-filled and then backfilled. Symmetric bath and pipette solutions for studies of seal resistance stability during reversibility tests of the deoxygenation-activated conductance in SAD mouse red cells were (in mM) 140 NaCl, 4 KCl, 1 CaCl2, 1 MgCl2, 10 Na HEPES, pH 7.4. These conditions yielded tight seals in 13% of patch attempts on SAD cells. For study of deoxygenation-induced monovalent cation permeation in the absence of bath Ca^2+ and Mg^2+ recorded in SAD and Berkeley mouse cells and in human cells, symmetric bath and pipette solutions contained (in mM) 150 Na methanesulfonate, 10 Na EDTA, and 10 Na HEPES, pH 7.4. These conditions yielded tight seals in 16% of patch attempts on SAD mouse red cells, 26% of attempts on Berkeley mouse cells, and 30% of attempts on human SS cells. For study of Ca^2+ permeation in human SS cells, bath and pipette solutions contained (in mM) 100 CaCl2, 10 Na HEPES, pH 7.4. These conditions yielded tights seals on 44% of attempts. For all conditions tested in human red cells, 70% of tight seals were sustained through the solution change accompanying deoxygenation to allow recording of current activity.
On-cell patch currents were recorded with the Axopatch 1-D amplifier (Axon Instruments/Molecular Devices, Sunnyvale, Calif.). Holding potential was −Vp=−50 mV (expressed as the negative of the pipette potential (e.g., equivalent to the intracellular potential with respect to the pipette). To determine current-voltage relationships (I-V curves) in Fetchex or Clampex (PCLAMP, Axon Instruments), the realtime control window in gap-free mode was used to record current traces of 10-30 sec duration at holding potentials ranging from −100 to +100 mV, in 25 mV increments. The bath reference electrode was a silver chloride wire with a 3 M KCl agar bridge. Data was filtered at 500 Hz, digitized at 2 kHz by Clampex, and analyzed offline by Fetchan and Pstat or by Clampfit subroutines of PCLAMP. Holding potentials in on-cell patch experiments were expressed as −Vp, the negative of the pipette potential.
Deoxygenation-activated flickering cation conductance observed in human SS cells contrasted with the prolonged channel openings produced by 5 μM LPA (FIG. 10A). In SS cells, LPA increased NPo […], from 0.04±0.03 to 0.82±0.18 (n=8, p<0.001; Na methanesulfonate in bath and pipette, −Vp=−50 mV; FIG. 10B). LPA-induced cation conductance was 96% inhibited by 100 uM dipyridamole in the pipette, and 97% inhibited by 1 μM GsMTx-4 in the pipette (both n=4).

Compound: CC(C)C[C@H]1NC(=O)[C@H](NC(=O)CN)CSSC[C@H]2NC(=O)[C@H]3CSSC[C@H](C(=O)N[C@H](CC(N)=O)C(=O)N[C@H](Cc4ccccc4)C(=O)N[C@H](CO)C(=O)N[C@H](Cc4ccccc4)C(N)=O)NC(=O)[C@@H](CC(C)C)NC(=O)[C@@H](CCCCN)NC(=O)[C@@H](Cc4ccccc4)NC(=O)[C@@H](CC(C)C)NC(=O)[C@@H](CCCCN)NC(=O)[C@@H](CO)NC(=O)[C@@H](CSSC[C@@H](NC(=O)[C@@H](CCCCN)NC(=O)[C@@H](Cc4c[nH]c5ccccc45)NC(=O)[C@@H](Cc4c[nH]c5ccccc45)NC(=O)[C@@H](Cc4ccccc4)NC(=O)[C@@H](CCC(=O)O)NC1=O)C(=O)N[C@H](CC(N)=O)C(=O)N1CCC[C@@H]1C(=O)N[C@H](CC(N)=O)C(=O)N[C@H](CC(=O)O)C(=O)N[C@H](CC(=O)O)C(=O)N[C@H](CCCCN)C(=O)N3)NC(=O)[C@@H](CCCCN)NC(=O)[C@@H](CC(C)C)NC(=O)[C@@H](CCCCN)NC(=O)[C@H]1CCCN1C(=O)[C@@H](CCCNC(=N)N)NC2=O [D-GsMTx4] (H-G[dC][dL][dE][dF][dW][dW][dK][dC][dN][dP][dN][dD][dD][dK][dC][dC][dR][dP][dK][dL][dK][dC][dS][dK][dL][dF][dK][dL][dC][dN][dF][dS][dF]-NH2; disulfide 2-17, 9-23, 16-30 (inferred); N-terminus and C-terminus assumed)
- effect on neurite length (neurite): no significant effect
- neurite initiation (neurite): did not stimulate
- clinical signs (mice; IV 9 mg/kg (highest dose), mice): slight tremors and decreased activity
- duration of clinical signs after injection (mice; IV 9 mg/kg, mice): ~0.5 h
- mortality (mice; IV 9, 5, 3 and 1 mg/kg, mice, 1 hour): No animals died
- time by which all mice appeared normal (mice; IV, all doses): ≤ 1 h
- mortality ([1]; 5 mg/kg IV, 50 mg/kg subQ, 50 mg/kg GI lavage, 24 hour): No animals died
- time of peak in all tissues ([1]; 5 mg/kg IV, mice): about 2 hrs
- concentration in tissues ([1]; 50 mg/kg GI lavage, mice): almost no measurable concentration
- time of peak in all tissues ([1]; 50 mg/kg subQ, mice): about 2 hrs
- distribution pattern among tissues ([1]; IV and subQ, 7 tissues): liver received the most while brain received the least
- course of tissue concentration after peak ([1]; IV and subQ, 24 hr): plateaued
- course of blood concentration after peak ([1]; IV and subQ, over 24 hrs): decreased exponentially
- Tmax ([1]; sc, 50 mg/kg subQ, mice): ≤ 2 h
- Tmax ([1]; 5 mg/kg IV, mice): ≤ 2 h
- effective half life of bound drug ([1]; suggested by the distribution data): very long
- clinical signs (rats; IV 9 mg/kg (highest dose), rat, remained for the 60 minute test duration): slow respiration, refusal to ambulate, decreased muscle tone
- mortality (rats; IV 9, 3 and 1 mg/kg, rats, 1 hour): No animals died
- behavior changes (ferrets): no behavior changes
- changes in QT intervals, arterial pressure and core temperature (ferrets; 24 hours): No statistically significant changes
- toxicity (mdx mice): No apparent toxicity
- ability to inhibit mechanically activated ion channels compared with wild type peptide (L-form) ([2]; Suchyna et al 2004): similar
- effect on mechanosensitive channel (MSC) activity ([2]; previously shown): block

Compound: Grammastola spatulata mechanotoxin 4 (GsMTx4) (peptide)
- NPo of deoxygenation-induced cation conductance, on-cell patch on human SS red cells, Na methanesulfonate in pipette and bath [3]: 0.003 NPo
- LPA-induced cation conductance (NPo), on-cell patch on human SS red cells [4]: 97 % inhibited

Compound: charybdotoxin
- effect on A23187-stimulated 86Rb+ influx (KCa3.1): completely inhibited

Compound: lysophosphatidic acid [LPA]
- effect on [Ca2+]i (Fluo-3 fluorescence) (human SS red cells): elevated
- NPo after exposure [5]: 0.82±0.18
- increase in NPo [5]: 16 fold
